We go through 13 molecules from patent US4931471A, “Amides of paramethoxycinnamic and utilization thereof as solar filters” (priority 1985, dated 1990).

A short description of data set [1]: UV spectrum (absorption maximum). In kind it is physicochemical.
A short description of data set [2]: Degradation in rat skin homogenate (TLC after 12 h). In kind it is in vitro ADME. On the procedure: The hypodermis was carefully detached by means of a razor blade. The remaining epidermis and dermis were cut into thin lamellae and placed in a conical flask containing 20 ml of phosphate buffer of pH 8. The lamellae were then ground in a Potter mill with large teeth so as to prevent the proteases from being released from the cell nuclei. The preparation obtained was centrifuged at 25,000 rpm and the supernatant was removed. 10 μmol of the test product were suspended in 4 ml of the homogenate. After 12 h, the solutions were analyzed by TLC.
When using rat skin homogenates such as those described above, no degradation of the amides according to Examples I and III to XI was observed, whereas the amide of Example II undergoes 30% degradation.

Data set [3] has as its system esterases in the skin and plasma. The conditions noted are these: loss of UV-B filtering power on the skin; cited from earlier work.
The conditions of data set [4]: man; cited from earlier work.

With “Amide of paramethoxycinnamic acid and the methyl ester of oxidized qlutathione [IX]”, in data set [1] (CHCl3), the “UV spectrum: maximum” value is given as 309 nm. Take `COC(=O)[C@H](CCSC)NC(=O)C=Cc1ccc(OC)cc1` [Example II, Methyl ester of N-(4-methoxycinnamoyl)-L-methionine]: the “degradation (in words)” value in data set [2] is reported as “slightly degraded”. This molecule showed a metabolised at 12 h in data set [2] (pH 8) of 30%. Also, the “UV spectrum: maximum” value in data set [1] (CHCl3) is 309 nm. On to `COc1ccc(C=CC(=O)N2CCCCC2)cc1` [Example I, N-(4-Methoxycinnamoyl)piperidine], for which the “UV spectrum: maximum” value in data set [1] (CHCl3) is given as 295 nm. As to `COC(=O)/C=C/c1cn(C(=O)C=Cc2ccc(OC)cc2)cn1` [XI, Amide of paramethoxycinnamic acid and the methyl ester of trans-urocanic acid], the “absorbing UV-A and UV-B radiation simultaneously” value in data set [1] (in words) was “capable of absorbing UV-A and UV-B radiation simultaneously”. Take `COC(=O)[C@H](CS)NC(=O)C=Cc1ccc(OC)cc1` [III, Methyl ester of N-(4-methoxycinnamoyl)-L-cysteine]: the “UV spectrum: maximum” value in data set [1] (CHCl3) worked out at 314 nm. For the molecule `CCCCC(CC)COC(=O)C=Cc1ccc(OC)cc1` (stereo not drawn) [Ibis], the “hydrolysis under the influence of the esterases in the skin and plasma” value in data set [3] is “hydrolyzes to p-methoxycinnamic acid”. As to `COC(=O)[C@H](CSSC[C@H](NC(=O)C=Cc1ccc(OC)cc1)C(=O)OC)NC(=O)C=Cc1ccc(OC)cc1` [IV, Dimethyl ester of N,N'-di(4-methoxycinnamoyl)-L-cystine], the “UV spectrum: maximum” value in data set [1] (CHCl3) is given as 309 nm.

Consider `COC(=O)[C@H](CSC)NC(=O)C=Cc1ccc(OC)cc1` [Example V, Methyl ester of S-methyl-N-(4-methoxycinnamoyl)-L-cysteine], for which, in data set [1] (CHCl3), the “UV spectrum: maximum” value is reported as 306 nm.

With `COC(=O)[C@H](Cc1ccc(O)cc1)NC(=O)C=Cc1ccc(OC)cc1` [Example VII, Methyl ester of N-(4-methoxycinnamoyl)-L-tyrosine], the “UV spectrum: maximum” value in data set [1] (CHCl3) was found to be 312 nm. Same read-out and setting: the figure for `COC(=O)[C@H](CSCc1ccccc1)NC(=O)C=Cc1ccc(OC)cc1` [Example VI, Methyl ester of S-benzyl-N-(4-methoxycinnamoyl)-L-cysteine] is 310 nm. Consider `O=C(O)/C=C/c1c[nH]cn1` [urocanic acid], for which the “passage into the blood” value in data set [4] was “passage into human blood”. On to `COC(=O)C=Cc1cn(C(=O)C=Cc2ccc(OC)cc2)cn1` [Example VIII, Methyl ester of (4-methoxycinnamoyl)imidazol-4-ylprop-2-enoic acid (amide of paramethoxycinnamic acid and the methyl ester of urocanic acid)], for which the “UV spectrum: maximum” value in data set [1] (100° ethanol) was determined as 350 nm. On to `O=C(C=Cc1c[nH]cn1)N1CCCCC1` [X, N-[3-(1H-Imidazol-4-yl)-1-oxoprop-2-enyl]piperidine], for which, in data set [1] (CHCl3), the “UV spectrum: maximum” value was 285 nm.
